Test results taken from patent US10076519B2 (CYTOKINETICS, INC., priority 2010, dated 2018).
Values belong to the compound of their own block, whether it stands above or below them.

System: rabbit skeletal myofibrils (fast skeletal myofibrils)
Assay: Activation of fast skeletal myofibrils (PUMA assay, PK/LDH-coupled ATPase at pCa25)
Format: biochemical
Summary of the method: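 ATPase activity of Triton-washed rabbit skeletal myofibrils, roughly 90% fast fibres, tracked by NADH loss at 340 nm through a PK/LDH-coupled ADP-regenerating system. Calcium set to 25% of maximal activity (pCa25), in PIPES 12 mM pH 6.8 with 2 mM MgCl2 and 1 mM DTT; AC1.4 reported.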

[1] = AC1.4 determined according to the procedure of Example 39, reported as class symbols
[2] = median AC1.4 reported as class, procedure of Example 39
[3] = median AC1.4 class, procedure of Example 39

Mean AC1.4 [1]: D (D=>20 uM)
SMILES: CS(=O)(=O)N1CC(CNc2ccc(-c3cccc(C(N)=O)c3)nn2)(c2ncccc2F)C1 [3-[6-({[3-(3-fluoro(2-pyridyl))-1-(methylsulfonyl)azetidin-3-yl]methyl}amino)pyridazin-3-yl]benzamide]

Mean AC1.4 [1]: D (D=>20 uM)
SMILES: NC(=O)c1cccc(-c2ccc(NCC3(c4ncccc4F)CNC3)nn2)c1 [3-[6-({[3-(3-fluoro-2-pyridyl)azetidin-3-yl]methyl}amino)pyridazin-3-yl]benzamide]

Mean AC1.4 [2]: A (A=<1 uM)
SMILES: NC(=O)c1cccc(-c2ccc(NC[C@]3(c4ncccc4F)C[C@H](F)C3)nn2)c1O [3-[6-({[3-fluoro-1-(3-fluoro(2-pyridyl))cyclobutyl]methyl}ami-no)pyridazin-3-yl]-2-hydroxybenzamide]

Mean AC1.4 [2]: B (B=1-10 uM)
SMILES: N#Cc1cccc(-c2ccc(NC[C@]3(c4ncccc4F)C[C@H](F)C3)nn2)c1O [3-[6-({[3-fluoro-1-(3-fluoro(2-pyridyl))cyclobutyl]methyl}ami-no)pyridazin-3-yl]-2-hydroxybenzenecarbonitrile]

Mean AC1.4 [2]: C (C=10-20 uM)
SMILES: O=C(O)c1cccc(-c2ccc(NC[C@]3(c4ncccc4F)C[C@H](F)C3)nn2)c1O [3-[6-({[3-fluoro-1-(3-fluoro(2-pyridyl))cyclobutyl]methyl}ami-no)pyridazin-3-yl]-2-hydroxybenzoic acid]

Mean AC1.4 [2]: D (D=>20 uM)
SMILES: COc1c(C(N)=O)cccc1-c1ccc(NC[C@]2(c3ncccc3F)C[C@H](F)C2)nn1 [3-[6-({[3-fluoro-1-(3-fluoro(2-pyridyl))cyclobutyl]methyl}ami-no)pyridazin-3-yl]-2-methoxybenzamide]

Mean AC1.4 [2]: C (C=10-20 uM)
SMILES: COc1c(C#N)cccc1-c1ccc(NC[C@]2(c3ncccc3F)C[C@H](F)C2)nn1 [3-[6-({[3-fluoro-1-(3-fluoro(2-pyridyl))cyclobutyl]methyl}ami-no)pyridazin-3-yl]-2-methoxybenzenecarbonitrile]

Mean AC1.4 [3]: B (B=1-10 uM)
SMILES: NC(=O)c1ccc(O)c(-c2ccc(NC[C@]3(c4ncccc4F)C[C@H](F)C3)nn2)c1 [3-[6-({[3-fluoro-1-(3-fluoro(2-pyridyl))cyclobutyl]methyl}ami-no)pyridazin-3-yl]-4-hydroxybenzamide]

Mean AC1.4 [2]: B (B=1-10 uM)
SMILES: NC(=O)c1cc(-c2ccc(NC[C@]3(c4ncccc4F)C[C@H](F)C3)nn2)cc(C(F)(F)F)c1 [3-[6-({[3-fluoro-1-(3-fluoro(2-pyridyl))cyclobutyl]methyl}ami-no)pyridazin-3-yl]-5-(trifluoromethyl)benzamide]

Mean AC1.4 [2]: A (A=<1 uM)
SMILES: NC(=O)c1cc(O)cc(-c2ccc(NC[C@]3(c4ncccc4F)C[C@H](F)C3)nn2)c1 [3-[6-({[3-fluoro-1-(3-fluoro(2-pyridyl))cyclobutyl]methyl}ami-no)pyridazin-3-yl]-5-hydroxybenzamide]

Mean AC1.4 [2]: B (B=1-10 uM)
SMILES: Cc1cc(C(N)=O)cc(-c2ccc(NC[C@]3(c4ncccc4F)C[C@H](F)C3)nn2)c1 [3-[6-({[3-fluoro-1-(3-fluoro(2-pyridyl))cyclobutyl]methyl}ami-no)pyridazin-3-yl]-5-methylbenzamide]

Mean AC1.4 [3]: A (A=<1 uM)
SMILES: NC(=O)c1cccc(-c2ccc(NC[C@]3(c4ncccc4F)C[C@H](F)C3)nn2)c1 [3-[6-({[3-fluoro-1-(3-fluoro(2-pyridyl))cyclobutyl]methyl}ami-no)pyridazin-3-yl]benzamide]

Mean AC1.4 [3]: B (B=1-10 uM)
SMILES: N#Cc1cccc(-c2ccc(NC[C@]3(c4ncccc4F)C[C@H](F)C3)nn2)c1 [3-[6-({[3-fluoro-1-(3-fluoro(2-pyridyl))cyclobutyl]methyl}ami-no)pyridazin-3-yl]benzenecarbonitrile]

Mean AC1.4 [3]: B (B=1-10 uM)
SMILES: NS(=O)(=O)c1cccc(-c2ccc(NC[C@]3(c4ncccc4F)C[C@H](F)C3)nn2)c1 [3-[6-({[3-fluoro-1-(3-fluoro(2-pyridyl))cyclobutyl]methyl}ami-no)pyridazin-3-yl]benzenesulfonamide]

Mean AC1.4 [3]: A (A=<1 uM)
SMILES: O=C(O)c1cccc(-c2ccc(NC[C@]3(c4ncccc4F)C[C@H](F)C3)nn2)c1 [3-[6-({[3-fluoro-1-(3-fluoro(2-pyridyl))cyclobutyl]methyl}ami-no)pyridazin-3-yl]benzoic acid]

Mean AC1.4 [2]: C (C=10-20 uM)
SMILES: Cc1cc(NCC2(c3ncccc3F)CCC2)nnc1-c1cccc(C(N)=O)c1 [3-[6-({[(3-fluoro(2-pyridyl))cyclobutyl]methyl}ami-no)-4-methylpyridazin-3-yl]benzamide]

Mean AC1.4 [2]: B (B=1-10 uM)
SMILES: Cc1cc(C(N)=O)c(O)c(-c2ccc(NCC3(c4ncccc4F)CCC3)nn2)c1 [3-[6-({[(3-fluoro(2-pyridyl))cyclobutyl]methyl}ami-no)pyridazin-3-yl]-2-hydroxy-5-methylbenzamide]

Mean AC1.4 [2]: B (B=1-10 uM)
SMILES: Cc1cc(C#N)c(O)c(-c2ccc(NCC3(c4ncccc4F)CCC3)nn2)c1 [3-[6-({[(3-fluoro(2-pyridyl))cyclobutyl]methyl}ami-no)pyridazin-3-yl]-2-hydroxy-5-methylbenzenecarbonitrile]

Mean AC1.4 [2]: A (A=<1 uM)
SMILES: NC(=O)c1cccc(-c2ccc(NCC3(c4ncccc4F)CCC3)nn2)c1O [3-[6-({[(3-fluoro(2-pyridyl))cyclobutyl]methyl}ami-no)pyridazin-3-yl]-2-hydroxybenzamide]

Mean AC1.4 [2]: B (B=1-10 uM)
SMILES: NC(=O)c1ccc(O)c(-c2ccc(NCC3(c4ncccc4F)CCC3)nn2)c1 [3-[6-({[(3-fluoro(2-pyridyl))cyclobutyl]methyl}ami-no)pyridazin-3-yl]-4-hydroxybenzamide]

Mean AC1.4 [2]: C (C=10-20 uM)
SMILES: O=C(O)c1ccc(O)c(-c2ccc(NCC3(c4ncccc4F)CCC3)nn2)c1 [3-[6-({[(3-fluoro(2-pyridyl))cyclobutyl]methyl}ami-no)pyridazin-3-yl]-4-hydroxybenzoic acid]

Mean AC1.4 [2]: D (D=>20 uM)
SMILES: Cc1cc(-c2cccc(C(N)=O)c2)nnc1NCC1(c2ncccc2F)CCC1 [3-[6-({[(3-fluoro(2-pyridyl))cyclobutyl]methyl}amino)-5-methylpyridazin-3-yl]benzamide]

The next lines start with the compound.

SMILES: NC(=O)c1cccc(-c2ccc(NCC3(c4ccc(F)cc4)COC3)nn2)c1 [3-[6-({[3-(4-fluorophenyl)oxetan-3-yl]methyl}amino)pyridazin-3-yl]benzamide]
Mean AC1.4 [1]: D (D=>20 uM)

SMILES: NC(=O)c1cccc(-c2ccc(NCC3(c4ccccc4Cl)CC3)nn2)c1 [3-[6-({[(2-chlorophenyl)cyclopropyl]meth-yl}amino)pyridazin-3-yl]benzamide]
Mean AC1.4 [1]: A (A=<1 uM)

SMILES: Cc1cc(NCC2(c3ncccc3F)CCC2)nnc1-c1cccc(C#N)c1 [3-[6-({[(3-fluoro(2-pyridyl))cyclobutyl]methyl}ami-no)-4-methylpyridazin-3-yl]benzenecarbonitrile]
Mean AC1.4 [2]: C (C=10-20 uM)

SMILES: CC1(C)C(=O)NN=C1c1ccc(NCC2(c3ncccc3F)CCC2)nn1 [3-[6-({[(3-fluoro(2-pyridyl))cyclobutyl]methyl}ami-no)pyridazin-3-yl]-4,4-dimethyl-2-pyrazolin-5-one]
Mean AC1.4 [2]: D (D=>20 uM)

SMILES: Cc1c(-c2ccc(NCC3(c4ncccc4F)CCC3)nn2)[nH][nH]c1=O [3-[6-({[(3-fluoro(2-pyridyl))cyclobutyl]methyl}ami-no)pyridazin-3-yl]-4-methyl-3-pyrazolin-5-one]
Mean AC1.4 [2]: D (D=>20 uM)

SMILES: NC(=O)c1nc(-c2ccc(NCC3(c4ncccc4F)CCC3)nn2)no1 [3-[6-({[(3-fluoro-2-pyridyl)cyclobutyl]methyl}ami-no)pyridazin-3-yl]-1,2,4-oxadiazole-5-carboxamide]
Mean AC1.4 [3]: B (B=1-10 uM)

SMILES: O=c1[nH]nc(-c2ccc(NCC3(c4ncccc4F)CCC3)nn2)[nH]1 [3-[6-({[(3-fluoro-2-pyridyl)cyclobutyl]methyl}ami-no)pyridazin-3-yl]-1,2,4-triazolin-5-one]
Mean AC1.4 [3]: C (C=10-20 uM)

SMILES: O=c1cc(-c2ccc(NCC3(c4ncccc4F)CCC3)nn2)[nH][nH]1 [3-[6-({[(3-fluoro-2-pyridyl)cyclobutyl]methyl}ami-no)pyridazin-3-yl]-3-pyrazolin-5-one]
Mean AC1.4 [3]: B (B=1-10 uM)

SMILES: CC(C)(CNc1ccc(-c2cc(F)cc(C(N)=O)c2)nn1)c1ccc(F)cc1 [3-fluoro-5-(6-{[2-(4-fluorophenyl)-2-methylpropyl]amino}pyridazin-3-yl)benzamide]
Mean AC1.4 [1]: B (B=1-10 uM)

SMILES: O=c1[nH]c(-c2cnc(-c3ccc(NCC4(c5ncccc5F)CCC4)nn3)s2)no1 [3-{2-[6-({[(3-fluoro-2-pyridyl)cyclobutyl]methyl}ami-no)pyridazin-3-yl]-1,3-thiazol-5-yl}-1,2,4-oxadiazolin-5-one]
Mean AC1.4 [3]: B (B=1-10 uM)

SMILES: O=c1[nH]nc(-c2cnc(-c3ccc(NCC4(c5ncccc5F)CCC4)nn3)s2)[nH]1 [3-{2-[6-({[(3-fluoro-2-pyridyl)cyclobutyl]methyl}ami-no)pyridazin-3-yl]-1,3-thiazol-5-yl}-1,2,4-triazolin-5-one]
Mean AC1.4 [3]: A (A=<1 uM)

SMILES: NC(=O)CCc1cnc(-c2ccc(NCC3(c4ncccc4F)CCC3)nn2)s1 [3-{2-[6-({[(3-fluoro-2-pyridyl)cyclobutyl]methyl}ami-no)pyridazin-3-yl]-1,3-thiazol-5-yl}propanamide]
Mean AC1.4 [2]: B (B=1-10 uM)

SMILES: O=C(O)CCc1cnc(-c2ccc(NCC3(c4ncccc4F)CCC3)nn2)s1 [3-{2-[6-({[(3-fluoro-2-pyridyl)cyclobutyl]methyl}ami-no)pyridazin-3-yl]-1,3-thiazol-5-yl}propanoic acid]
Mean AC1.4 [2]: B (B=1-10 uM)

SMILES: O=c1[nH]nc(-c2cccc(-c3ccc(NCC4(c5ncccc5F)CCC4)nn3)c2)[nH]1 [3-{3-[6-({[(3-fluoro-2-pyridyl)cyclobutyl]methyl}ami-no)pyridazin-3-yl]phenyl}-1,2,4-triazolin-5-one]
Mean AC1.4 [3]: B (B=1-10 uM)

SMILES: O=c1[nH]nc(-c2ccc(F)c(-c3ccc(NCC4(c5ncccc5F)CCC4)nn3)c2)[nH]1 [3-{4-fluoro-3-[6-({[(3-fluoro(2-pyridyl))cyclobutyl]methyl}ami-no)pyridazin-3-yl]phenyl}-1,2,4-triazolin-5-one]
Mean AC1.4 [3]: A (A=<1 uM)
